Reference: patent publication US9572850B2, “Use of cajeput and Pimenta racemosa extract for treating parasitic infestation of fish” (Mars, Incorporated, priority 2009, dated 2017)

Key:
[1] = system: G. turnbulli; test: Trial 2: single parasite, single fish, low dose, 7 day treatment; efficacy of treatments; type: in vivo
Method: (§1) Efficacy of treatments in all trials was assessed using the following equation: Et=(L0−Lt)/L0 for Lt<L0, and ΔEt=0 for Lt>L0. Where • L0=parasite load at start of treatment • Lt=parasite load at end of treatment and • Et=efficacy of treatment at time t.
All data were analysed in Minitab vs. 15.

[2] = system: single guppies each infected with 2-200 G. turnbulli; test: Host mortality in Trial 2
Method: They were fed on a mixture of live food (Daphnia and Artemia spp.) and Aquarian fish flakes at least twice daily and were maintained at 25±1° C. with a 12 h dark:12 h light cycle.
On D1 (day 1) and D8 (day 8) the number of parasites and their location on the host were recorded by screening fish anaesthetised with 0.02% MS222 using a stereo-microscope and cold light illumination.
In a second trial, single guppies (n=115) each infected with 2-200 G. turnbulli were maintained as in Trial 1 and received treatments of either allyl disulphide, Pimafix®, Melafix® or a Pimafix®/Melafix® combination.

[3] = system: Gyrodactylus turnbulli infections on guppies; test: Allyl disulphide carefully applied: high dose 10 min exposure, followed by low dose 1 h exposure; type: in vivo; conditions: high dose 10 min exposure, followed by low dose 1 h exposure
[4] = system: G. turnbulli; conditions: 0.15 mg/l alone (daily water changes)
Method: as §1

Structure (SMILES)	efficacy (in words) ([1]; Trial 2, single parasite, single fish, low dose, 7 day treatment)	efficacy (in words) ([1]; applied at a low dose, comparable to applications used in the aquarium trade)	increase of host mortality compared to the control [2] [%]	Host mortalities (%) Trial 2 ([2]; single guppies, 7 day treatment) [%]	efficacy (in words) [3]	efficacy at removing parasites (in words) [4]
C=CCSSCC=C [Allyl disulphide, allyl disulphide]	not effective	not effective	15	50	effective only when carefully applied	–
c1ccc([C@H]2CN3CCSC3=N2)cc1 [Levamisole, levamisole]	–	–	–	–	–	not effective at removing parasites
